Key:
[1] = system: SaOS-2 His273 mtp53 human osteosarcoma cell line; assay: In vitro efficacy study using the SaOS-2 His273 protocol (CellTiter-Glo viability, 72 h); assay type: cell-based; details: SAOS-2, growth suppression, 72 hours incubation, CellTiter-Glo, read-out: SaOS-2 His273 IC50
Protocol: SaOS-2 His273 mtp53 is a human osteosarcoma cell line which has been genetically engineered at OnkPat CCK to express His273 mutated p53.
3000 cells/well (50 μl) were seeded into masked (black or white with clear bottom) 96-well cell culture plates using Iscove's Modified Dulbecco's Medium supplemented with 10% heat inactivated (56° C. for 60 min) fetal calf serum. The plates were then incubated for 4 hours, allowing the cells to attach. The test compounds were dissolved in DMSO or water to a concentration of 0.01 M and then further diluted to desired concentrations using the cell medium. 50 μl of freshly diluted test compound from fresh stock was added to the wells. The plates were then incubated for 72 hours.
For viability detection, CellTiter-Glo® Luminescent Cell Viability Assay (CTG) was used. CTG is a homogeneous “add-mix-measure” format method of determining the number of viable cells in culture based on quantitation of the ATP present, an indicator of metabolically active cells. The luminescence was measured using the PerkinElmer Victorx4 instrument.
The average of the signal values for the untreated cells was calculated for each plate. The % of growth suppression was calculated as:
100−((Signal sample/Signal untreated cells)×100).
The results of the SaOs-2 His273 analyses were expressed as IC50 values, i.e. concentration that suppresses growth of at least 50% of the cells. The IC50 values of various compounds according to the invention and of some comparative compounds are shown in Table 1, Table 2, Table 3 and Table 4.

[2] = system: MDA-MB-231-Luc human breast cancer cell line carrying mutant p53 (R280K); assay: In vivo efficacy study, orthotopic MDA-MB-231-Luc breast cancer xenograft in nude mice; set-up: species or system nude mice (Hsd:AthymicNude-Foxnlnu); details: 42 or 125 mg/kg intraperitoneally twice daily, 3 cycles of 5 days, compared to control animals
Protocol: A: Luciferase luminescence from mice xenografted with MDA-MB-231-Luc breast cancer cells. B: Tumor weight at day 33 after beginning of treatment.
The compound of Example 4 was administered intraperitoneally twice daily at 42 or 125 mg/kg to nude mice (Hsd:AthymicNude-Foxnlnu) ortotopically xenografted with the human breast cancer cell line MDA-MB-231-Luc, carrying mutant p53 (R280K). To make MDA-MB-231-Luc, the cell line MDA-MB-231 was stably transfected with a synthetic gene for firefly luciferase, Luc2 (pGL4, Promega). Thereby, the tumor load may be externally monitored by luminescence measurement (radiance values; photon/second/cm^2/steradian). 5×10^6 MBA-MB-231-luc cells were injected, and eight days later the animals were stratified into treatment groups and control, 8 animals in each group, based on luminescence measurement. Treatment was started on day 11 and done in 3 cycles of 5 days each, with 2 days recovery. Tumor progression was evaluated by non-invasive in vivo imaging during the second cycle (day 18) and at the end of treatment (day 32). On day 33, the animals were sacrificed and the tumors excised and weighed.

O=C1C2CCN(CC2)C1CNC(=O)C(F)(F)F (racemic) [Example 4, 2,2,2-trifluoro-N-((3-oxoquinuclidin-2-yl)methyl)acetamide]
IC50 [1]: 5.6 µM | tumor cell migration as measured by radiance of luminescence (FIG. 1A) ([2]; imaging day 18 and day 32): reduced tumor cell migration compared to control animals | tumor weight (FIG. 1B) ([2]; tumors excised day 33): reduced tumor weight compared to control animals

From patent US20220071970A1, “QUINUCLIDINE-3-ONE DERIVATIVES AND THEIR USE IN CANCER TREATMENT” (Aprea Therapeutics AB, priority 2018, published 2022)
